# Assay results as given in ChEMBL document CHEMBL3046459, “Structural insights for 3H-1, -2, -4 triazolinones as angiotensin II receptor antagonists using QSAR techniques” (Med Chem Res, 2010).
# Columns and labels:
# [1] = target: T1, Type-1 angiotensin II receptor (Oryctolagus cuniculus) (UniProt P34976); assay: (§1) Antagonist activity at angiotensin 2 type-1 receptor in Oryctolagus cuniculus (rabbit) aorta in presence of bovine serum albumin; set-up: unit not given here
# T1 sequence (whole entry): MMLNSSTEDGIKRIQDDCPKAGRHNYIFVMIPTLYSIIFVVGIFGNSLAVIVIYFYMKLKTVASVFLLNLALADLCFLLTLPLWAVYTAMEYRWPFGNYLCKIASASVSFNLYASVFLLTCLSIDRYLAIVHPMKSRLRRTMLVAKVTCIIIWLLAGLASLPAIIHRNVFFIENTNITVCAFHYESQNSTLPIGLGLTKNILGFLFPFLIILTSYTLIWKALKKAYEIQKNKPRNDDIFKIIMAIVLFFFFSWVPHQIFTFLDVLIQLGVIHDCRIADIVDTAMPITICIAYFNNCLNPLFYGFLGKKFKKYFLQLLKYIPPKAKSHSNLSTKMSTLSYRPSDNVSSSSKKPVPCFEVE
# [2] = target: T2, Type-1 angiotensin II receptor (Oryctolagus cuniculus, UniProt P34976); assay: as §1
# T2 sequence (P34976 whole entry): T1 sequence (whole entry)
logIC50 [1],IC50 [2] [nM],SMILES
0.763,,CCCCc1nn(-c2c(Cl)cccc2Cl)c(=O)n1Cc1ccc(-c2ccccc2-c2nn[nH]n2)cc1
1.9,,CCCCc1nn(-c2ccccn2)c(=O)n1Cc1ccc(-c2ccccc2-c2nn[nH]n2)cc1
1.23,,CCCCc1nn(-c2c(F)c(F)c(F)c(F)c2F)c(=O)n1Cc1ccc(-c2ccccc2-c2nn[nH]n2)cc1
1.18,,CCCCc1nn(-c2cccc(OC)c2)c(=O)n1Cc1ccc(-c2ccccc2-c2nn[nH]n2)cc1
0.505,,CCCCc1nn(CC(C)C)c(=O)n1Cc1ccc(-c2ccccc2-c2nn[nH]n2)cc1
0.38,,CCCCc1nn(-c2ccccc2Cl)c(=O)n1Cc1ccc(-c2ccccc2-c2nn[nH]n2)cc1
1.2,,CCCCc1nn(-c2ccc(C)cc2)c(=O)n1Cc1ccc(-c2ccccc2-c2nn[nH]n2)cc1
0.886,,CCCCc1nn(C(C)C)c(=O)n1Cc1ccc(-c2ccccc2-c2nn[nH]n2)cc1
1.83,,CCCCc1nn(C(C(=O)O)c2ccccc2)c(=O)n1Cc1ccc(-c2ccccc2-c2nn[nH]n2)cc1 (centres undefined)
1.15,,CCCc1nn(-c2ccccc2Cl)c(=O)n1Cc1ccc(-c2ccccc2-c2nn[nH]n2)cc1
0.146,,CCCCc1nn(-c2ccccc2C(C)C)c(=O)n1Cc1ccc(-c2ccccc2-c2nn[nH]n2)cc1
1.04,,CCCCc1nn(Cc2ccccc2C)c(=O)n1Cc1ccc(-c2ccccc2-c2nn[nH]n2)cc1
1.32,,CCCCc1nn(-c2ccc(F)cc2)c(=O)n1Cc1ccc(-c2ccccc2-c2nn[nH]n2)cc1
0.978,,CCCc1nn(-c2ccccc2[N+](=O)[O-])c(=O)n1Cc1ccc(-c2ccccc2-c2nn[nH]n2)cc1
1.9,,CCCCc1nn(-c2ccc([N+](=O)[O-])cc2)c(=O)n1Cc1ccc(-c2ccccc2-c2nn[nH]n2)cc1
1.5,6,CCCCc1nn(Cc2c(F)c(F)c(F)c(F)c2F)c(=O)n1Cc1ccc(-c2ccccc2-c2nn[nH]n2)cc1
1.63,,CCCCc1nn(-c2cccc([N+](=O)[O-])c2)c(=O)n1Cc1ccc(-c2ccccc2-c2nn[nH]n2)cc1
1.84,,CCCCc1nn(C)c(=O)n1Cc1ccc(-c2ccccc2-c2nn[nH]n2)cc1
0.505,,CCCCc1nn(-c2ccccc2N(C)C)c(=O)n1Cc1ccc(-c2ccccc2-c2nn[nH]n2)cc1
0.756,,CCCCCc1nn(-c2ccccc2Cl)c(=O)n1Cc1ccc(-c2ccccc2-c2nn[nH]n2)cc1
0.748,,CCCCc1nn(-c2ccccc2C(=O)OC)c(=O)n1Cc1ccc(-c2ccccc2-c2nn[nH]n2)cc1
0.82,,CCCCc1nn(-c2ccccc2OC)c(=O)n1Cc1ccc(-c2ccccc2-c2nn[nH]n2)cc1
1.04,,CCCCc1nn(-c2ccccc2Cc2ccccc2)c(=O)n1Cc1ccc(-c2ccccc2-c2nn[nH]n2)cc1
1.78,,CCCCc1nnc(O)n1Cc1ccc(-c2ccccc2-c2nn[nH]n2)cc1
1.23,,CCCCc1nn(CC(=O)OC)c(=O)n1Cc1ccc(-c2ccccc2-c2nn[nH]n2)cc1
0.301,,CCCCc1nn(-c2ccccc2Br)c(=O)n1Cc1ccc(-c2ccccc2-c2nn[nH]n2)cc1
1.08,,CCCCc1nn(C(C(=O)OC)c2ccccc2)c(=O)n1Cc1ccc(-c2ccccc2-c2nn[nH]n2)cc1 (centres undefined)

logIC50 [1],IC50 [2] [nM],SMILES
-0.131,,CCCCc1nn(-c2ccc(OC)cc2[N+](=O)[O-])c(=O)n1Cc1ccc(-c2ccccc2-c2nn[nH]n2)cc1
1,,CCCCc1nn(CC)c(=O)n1Cc1ccc(-c2ccccc2-c2nn[nH]n2)cc1
0.663,,CCCCc1nn(Cc2ccccc2)c(=O)n1Cc1ccc(-c2ccccc2-c2nn[nH]n2)cc1
2,,CCCCc1nn(-c2ccccc2N)c(=O)n1Cc1ccc(-c2ccccc2-c2nn[nH]n2)cc1
2.69,,CCCCc1nn(Cc2ccccc2C(=O)O)c(=O)n1Cc1ccc(-c2ccccc2-c2nn[nH]n2)cc1
1.84,,CCCCc1nn(-c2ccc(Cl)cc2)c(=O)n1Cc1ccc(-c2ccccc2-c2nn[nH]n2)cc1
0.255,,CCCCc1nn(C(C)CC)c(=O)n1Cc1ccc(-c2ccccc2-c2nn[nH]n2)cc1 (centres undefined)
0.0792,,CCCCc1nn(-c2ccccc2C(F)(F)F)c(=O)n1Cc1ccc(-c2ccccc2-c2nn[nH]n2)cc1
1.25,,CCCCc1nn(-c2cccc(C)c2)c(=O)n1Cc1ccc(-c2ccccc2-c2nn[nH]n2)cc1
0.914,,CCCCc1nn(CCC)c(=O)n1Cc1ccc(-c2ccccc2-c2nn[nH]n2)cc1
-0.0315,,CCCCCc1nn(-c2ccccc2[N+](=O)[O-])c(=O)n1Cc1ccc(-c2ccccc2-c2nn[nH]n2)cc1
1.04,,CCCCc1nn(Cc2ccccc2C(=O)OC)c(=O)n1Cc1ccc(-c2ccccc2-c2nn[nH]n2)cc1
1.36,,CCCCc1nn(Cc2ccc(C(=O)OC)cc2)c(=O)n1Cc1ccc(-c2ccccc2-c2nn[nH]n2)cc1
1.08,,CCCCc1nn(Cc2cccc(C)c2)c(=O)n1Cc1ccc(-c2ccccc2-c2nn[nH]n2)cc1
0.556,,CCCCc1nn(-c2ccccc2-c2ccccc2)c(=O)n1Cc1ccc(-c2ccccc2-c2nn[nH]n2)cc1
2.06,,CCCCc1nn(-c2ccccc2C(=O)O)c(=O)n1Cc1ccc(-c2ccccc2-c2nn[nH]n2)cc1
1.43,,CCCCc1nn(-c2ccc(CC)cc2)c(=O)n1Cc1ccc(-c2ccccc2-c2nn[nH]n2)cc1
0.886,,CCCCc1nn(-c2ccccc2F)c(=O)n1Cc1ccc(-c2ccccc2-c2nn[nH]n2)cc1
0.613,,CCCCc1nn(-c2ccccc2C)c(=O)n1Cc1ccc(-c2ccccc2-c2nn[nH]n2)cc1
2.04,,CCCCc1nn(Cc2cccc(C(=O)OC)c2)c(=O)n1Cc1ccc(-c2ccccc2-c2nn[nH]n2)cc1
2.08,,CCCCc1nn(-c2cccc(Cl)c2)c(=O)n1Cc1ccc(-c2ccccc2-c2nn[nH]n2)cc1
0.699,,CCCCc1nn(-c2ccc(OC)cc2)c(=O)n1Cc1ccc(-c2ccccc2-c2nn[nH]n2)cc1
0.69,,CCCCc1nn(C(C)c2ccccc2)c(=O)n1Cc1ccc(-c2ccccc2-c2nn[nH]n2)cc1 (centres undefined)
0.462,,CCCCc1nn(CCCC)c(=O)n1Cc1ccc(-c2ccccc2-c2nn[nH]n2)cc1
0.462,,CCCCc1nn(CC2CCCCC2)c(=O)n1Cc1ccc(-c2ccccc2-c2nn[nH]n2)cc1
1.52,,CCCCc1nn(-c2ccc(C(=O)OC)cc2)c(=O)n1Cc1ccc(-c2ccccc2-c2nn[nH]n2)cc1
